From US7759087B1, “Method of indefinite culture of hepatitis C virus” (priority 2005, dated 2010)

Tests used:
[1] = tested on: HCV replicon (NS5A-GFP) in GS4 cells; assay: GFP-based flow cytometry assay for HCV replication (NS5A-GFP expression in GS4 replicon cells); assay type: cell-based, hepatitis C virus; settings: for mean intensity of the GFP and percentage of GFP-positive cells: 100 units/ml IFN, 1 μM 2CMA, 2 μg/ml Cs A
Method: (§1) Flow cytometry and cell cycle analysis. Cells were routinely fixed in 2% paraformaldehyde before flow cytometry analysis, which was performed with a FACSCanto flow cytometer (BD Biosciences). Live cell sorting was performed under sterile conditions with a FACSAria flow cytometer (BD Biosciences). The approximately 5% of cells (2×10^7 cells total) with the strongest GFP signal were sorted back for expansion at each round of live-cell sorting. For cell-cycle analysis, 1×10^6 cells were stained with 50 μg/ml propidium iodide in the presence of 200 μg/ml RNase A and 0.1% Triton X-100 for 30 minutes before being subjected to FACS analysis.
A novel GFP-based flow cytometry assay for HCV replication. Recently, a modified HCV replicon with the eGFP gene inserted into the coding region of NS5A has been generated for study of the subcellular localization of the HCV replication complex (16). […] When we subjected I/5A-GFP cells to flow-cytometry analysis, we found the GFP signal of the majority (˜70%) of the cells to be indistinguishable from that of Clone B, a replicon cell line without GFP but containing the same S2204I mutation in the NS5A gene (1) (FIG. 1). To obtain a cell line with minimal FACS-profile overlap with the GFP-negative replicon cells, we then performed consecutive rounds of cell sorting on I/5A-GFP-6 cells in which the cells with the strongest GFP were recovered. A population with no greater than 15% GFP-negative cells was obtained after four rounds of sorting and was used for the present study. We designated these cells GS4 (FIG. 1).
The GFP signal of these cells was then analyzed by flow cytometry 4 days after treatment with increasing amounts of inhibitors, including Interferon-α (IFN-α), 2′-Cmethyl-adenosine (2CMA), and Cyclosporin A (Cs A). […] The […] (0.25 μM for 2CMA, 0.5 μg/ml for CsA, and 10-25 units/ml for IFN-α) obtained with this assay closely resemble results from previous studies where HCV RNA level was measured (2, 6, 19, 26).

[2] = tested on: HCV RNA in GS4 cells; assay: Northern analysis of HCV RNA in GS4 cells; assay type: cell-based, hepatitis C virus; settings: 3 days, 1 μM 2CMA, 10 μg/ml aphidicolin
Method: RNA extraction and northern blots. Total RNA was extracted with TRIzol reagent (Invitrogen, San Diego, Calif.). Equal amounts of RNA (10 μg per sample) were loaded onto formaldehyde-containing agarose gels for electrophoresis. The transfer of RNA onto a nitrocellulose membrane, random labeling of a radioactive probe, and hybridization were all performed according to standard molecular-biology protocols. The probe for detecting HCV RNA is a cDNA fragment that corresponds to nucleotides 8024 to 9563 of HCV 1 b. The exposure and detection of the radioactive signal was done with a Storm 860 phosphor-imaging system (Amersham/GE Healthcare).
To validate our results at the viral RNA level, we repeated the inhibition and rescue experiments and directly examined HCV RNA by northern blotting. GS4 cells were treated with various inhibitors/agents for 3 days before the total RNAs were subjected to northern analysis for HCV RNA.

[3] = tested on: HCV replicon (wild-type NS5A) in Huh.8 cells; assay: Western blot for NS5A expression in Huh.8 replicon cells; assay type: cell-based, hepatitis C virus; settings: 4 days, 1 μM 2CMA, 10 μg/ml aphidicolin
Method: Antibodies and western blots. An anti-NS5A monoclonal antibody was purchased from Virogen (Boston, Mass.) and an anti-Ku86 monoclonal antibody from Sigma. A monoclonal antibody against GFP was obtained from Clontech/BD Biosciences. To detect membrane-associated HCV proteins, we directly lysed the replicon cells in SDS PAGE sample buffer. We used 2×10^5 cells per 160 μl of SDS PAGE sample buffer for all our western blotting experiments. Blotting and detection were all performed according to standard procedures. For detection of Ku86 signal, the membrane was first stripped of the NS5A signal by incubation in stripping buffer (100 mM 2mercaptoethanol, 2% SDS, 62.5 mM Tris-HCl, pH 6.7) for 30 minutes at 50° C.
Additional experiments with a replicon cell line containing a wild type HCV sequence. […] Huh.8 is replicon cell line that contains the wild-type sequence of NS5A (1). Huh.8 cells were cultured under various conditions for 4 days before being analyzed by western blot for NS5A expression. […] Serum starvation actually appeared to have increased NS5A expression, as it did with the GS4 cells (FIG. 8 and data not shown).

[4] = tested on: HCV replicon (NS5A-GFP) in GS4 cells; assay: Recovery of NS5A-GFP expression at 37° C. after 39° C. treatment of GS4 cells; assay type: cell-based, hepatitis C virus; settings: 4 days recovery at 37° C.; 100 units/ml IFN-a, 10 μg/ml aphidicolin
Method: To eliminate the possibility that these growth-arrest treatments somehow stabilize the GFP and maintain it throughout the treatment, we took advantage of our finding that 39° C. treatment results in reversible inhibition of HCV replication in our assay. We first eliminated the GFP signal from GS4 cells by incubating them at 39° C. for 4 days and then transferred the cells back to 37° C. so that HCV replication could recover. […] We tested aphidicolin and serum starvation using this assay along with IFN-α.

[5] = tested on: GS4 cells; assay: Cell-cycle analysis by propidium iodide staining; assay type: cell-based; settings: 4 days, 10 μg/ml shown
Method: as §1
Failure of growth arrest to inhibit replicon expression prompted us to examine the effect of cell-cycle perturbation on replicon expression. Propidium iodide (PI) staining of the cells permitted acquisition of dual fluorescence FACS profiles showing the cell-cycle distribution of GFP-positive and -negative cells. We found no correlation between positive GFP signal and any of the cell-cycle stages in the cycling cells (FIG. 12, no treatment). Incubation at 39° C. inhibited NS5A-GFP expression without any effect on cell-cycle profile. […] Even though confluency also affected cell cycle to a certain degree, its effect on cell-cycle progress was far less dramatic than that of aphidicolin.

[6] = tested on: full-length HCV RNA based on the genotype 1b HCV-N; settings: reference 22; cited from earlier work
[7] = tested on: HCV replicon; settings: reference 17; cited from earlier work

Row | Molecule | mean intensity of the GFP and percentage of GFP-positive cells ([1]; GS4 cells, 4 days) | IC50 ([1]; Hepatitis C virus, 96 h, GS4 cells, 4 days treatment, flow cytometry, read-out: 1050 (NS5A-GFP expression)) [nM] | HCV RNA signal (northern blotting) [2] | NS5A expression (western blot) [3] | effect on NS5A-GFP expression ([1]; 5 to 20 μg/ml, GS4 cells, 4 days) | recovery of NS5A-GFP expression after 39° C. treatment [4] | cell-cycle arrest [5] | abundance of HCV RNA or protein [6] | effect on HCV replicon [7] | effect on HCV RNA replication or protein expression ([1]; our system, data not shown)
1 | C[C@@]1(O)[C@H](O)[C@@H](CO)O[C@H]1n1cnc2c(N)ncnc21 [2CMA, 2′-C-methyl-adenosine] | effectively lowered | 250 | effectively eliminated HCV RNA signal | effectively eliminated any NS5A expression | – | – | – | – | – | –
2 | C[C@@]1(CO)[C@H](O)CC[C@@]2(C)[C@H]1CC[C@H]1C[C@@H]3C[C@@]12CC[C@]3(O)CO [aphidicolin] | – | – | only had a minimal effect | did not inhibit HCV expression | failed to affect NS5A-GFP expression significantly | did not prevent the resumption of HCV replication | effectively arrested cell cycle at the G1/S transition | had no effect | inhibitory effect | –
3 | Interferon-α [IFN-α] | effectively lowered | – | – | – | – | efficiently blocked the recovery of the NS5A-GFP expression | – | – | – | –
4 | TGF-β | – | – | – | – | – | – | – | – | – | only a marginal effect
